Biological target: T1, HiPIP (Thermochromatium tepidum, UniProt P80176)
T1 construct: gene hip; native, purified from cells by DEAE chromatography in the reduced state; co-crystallised with native LH1-RC; with Photosynthetic reaction center cytochrome c subunit
Assay: X-ray crystal structure of HiPIP:LH1-RC co-complex, […] Å
Assay type: binding
Settings: pH 5; 4Fe-4S cluster ligated by Cys; HiPIP purified in reduced state; bound to LH1-RC

T1 sequence (P80176 whole entry, other chains not shown): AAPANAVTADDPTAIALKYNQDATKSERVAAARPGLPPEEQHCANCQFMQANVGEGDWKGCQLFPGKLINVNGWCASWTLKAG

[S]12[Fe]3[S]4[Fe]1[S]1[Fe]2[S]3[Fe]41 [4Fe-4S cluster]
X-ray crystal structure of HiPIP:LH1-RC co-complex, 2.9 Å: Fe atoms in both hemes and the 4Fe-4S cluster were clearly resolved
